Test results taken from patent publication US20030022158A1, “Peptides from the TT virus sequence and monospecific antibodies binding to the TT virus” (priority 1999, published 2003).

Key:
[1] = tested on: human IgG antibodies in human serum samples; assay: EIA of human antibody reactivities to overlapping synthetic peptides of TTV ORF1 and ORF2 (Tables 2 and 3); assay type: binding; details: for optical density (OD) at 405 nm: serum diluted 1:100, OD over 0.500 considered positive; for human reactivity to peptide (reactive peptides within ORF1): tested human sera, EIA
Method in brief: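 Human serum diluted 1:100 was tested for IgG binding to 18-residue overlapping TTV peptides coated at 10 μg/ml (pH 9.6 carbonate, 48 h). Blocking buffer held BSA, goat serum and Tween 20. Alkaline phosphatase anti-human IgG gave a signal measured as OD at 405 nm.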

[2] = tested on: human antibodies in human serum samples; assay: EIA reactivities of three human serum samples with deletion and alanine substitution analogues of SEQ ID NO: 1 (Table 6); assay type: binding; details: positive = more than 50% of the reactivity of the original peptide
Method: The EIAs used to identify which peptides interacted with human sera followed protocols known in the art. (See Zhang et al., J Gen Virol, 78:2735-2746 (1997), herein expressly incorporated by reference in its entirety). Briefly, microplates (Nunc, Denmark) were coated for 48 hours with synthetic peptides at a concentration of 10 μg/ml in 0.05M sodium carbonate buffer pH 9.6. After blocking for 2 hours at room temperature with phosphate buffered saline containing 1% bovine serum albumin, 2% goat serum and 0.05% Tween 20 (dilution buffer) the plates were incubated with human sera diluted 1:100 in dilution buffer. Bound human IgG was detected by incubation with anti-human IgG antibodies conjugated to alkaline phosphatase (Sigma Chemicals, St. Louis, Mo.). The plates were developed by the addition of […] (Sigma) and the optical densities were determined at 405 nm.
The reactivity to the TATTTTYAYPGTNRPPV (SEQ ID NO: 1) peptide was further characterized by mapping the reactivity of deletion and substitution peptide analogues.

[3] = human serum sample 1, negative for TTV DNA by PCR
[4] = human serum sample 2, negative for TTV DNA by PCR
[5] = human serum sample 3, negative for TTV DNA by PCR
[6] = human serum sample 4, negative for TTV DNA by PCR
[7] = human serum sample 5, negative for TTV DNA by PCR
[8] = human serum sample 6, negative for TTV DNA by PCR
[9] = human serum sample 7, negative for TTV DNA by PCR
[10] = human serum sample 9, positive for TTV DNA by PCR
[11] = human serum sample 11, negative for TTV DNA by PCR
[12] = human serum sample 18, positive for TTV DNA by PCR
[13] = human serum sample 36, positive for TTV DNA by PCR
[14] = human serum sample 48, positive for TTV DNA by PCR
[15] = human serum sample 98, positive for TTV DNA by PCR
[16] = human serum sample 110, positive for TTV DNA by PCR
[17] = human serum sample 155, positive for TTV DNA by PCR
[18] = human serum sample 157, positive for TTV DNA by PCR

Substance | optical density (OD) at 405 nm [1, 3] [OD] | optical density (OD) at 405 nm [1, 4] [OD] | optical density (OD) at 405 nm [1, 5] [OD] | optical density (OD) at 405 nm [1, 6] [OD] | optical density (OD) at 405 nm [1, 7] [OD] | optical density (OD) at 405 nm [1, 8] [OD] | optical density (OD) at 405 nm [1, 9] [OD] | optical density (OD) at 405 nm [1, 10] [OD] | optical density (OD) at 405 nm [1, 11] [OD] | optical density (OD) at 405 nm [1, 12] [OD] | optical density (OD) at 405 nm [1, 13] [OD] | optical density (OD) at 405 nm [1, 14] [OD] | optical density (OD) at 405 nm [1, 15] [OD] | optical density (OD) at 405 nm [1, 16] [OD] | optical density (OD) at 405 nm [1, 17] [OD] | optical density (OD) at 405 nm [1, 18] [OD] | OD at 405 nm, reactivity of human serum sample P4 [2] [OD] | OD at 405 nm, reactivity of human serum sample P7 [2] [OD] | OD at 405 nm, reactivity of human serum sample P36 [2] [OD] | human reactivity to peptide (reactive peptides within ORF1) [1] | also measured
peptide 1: overlapping synthetic peptide of TTV ORF1 (TATTTTYAYPGTNRPPV) | 0.00 | 0.00 | 0.00 | 0.00 | 0.00 | 0.00 | 0.00 | 0.00 | 0.00 | 0.00 | 0.00 | 0.00 | 0.00 | 0.00 | 0.00 | 0.00 | 0.839 | 1.845 | 0.825 | – | optical density (OD) at 405 nm, EIA reactivity of human serum sample 1 ([1]; serum sample 1, negative for TTV DNA by PCR, serum 1:100, peptide coated 10 μg/ml, OD over 0.500 positive): 0.09 OD; optical density (OD) at 405 nm, EIA reactivity of human serum sample 2 ([1]; serum sample 2, negative for TTV DNA by PCR, serum 1:100, peptide coated 10 μg/ml, OD over 0.500 positive): 0.10 OD; optical density (OD) at 405 nm, EIA reactivity of human serum sample 3 ([1]; serum sample 3, negative for TTV DNA by PCR, serum 1:100, peptide coated 10 μg/ml, OD over 0.500 positive): 0.13 OD; optical density (OD) at 405 nm, EIA reactivity of human serum sample 4 ([1]; serum sample 4, negative for TTV DNA by PCR, serum 1:100, peptide coated 10 μg/ml, OD over 0.500 positive): 0.11 OD; optical density (OD) at 405 nm, EIA reactivity of human serum sample 5 ([1]; serum sample 5, negative for TTV DNA by PCR, serum 1:100, peptide coated 10 μg/ml, OD over 0.500 positive): 0.10 OD; optical density (OD) at 405 nm, EIA reactivity of human serum sample 6 ([1]; serum sample 6, negative for TTV DNA by PCR, serum 1:100, peptide coated 10 μg/ml, OD over 0.500 positive): 0.16 OD; optical density (OD) at 405 nm, EIA reactivity of human serum sample 7 ([1]; serum sample 7, negative for TTV DNA by PCR, serum 1:100, peptide coated 10 μg/ml, OD over 0.500 positive): 0.09 OD; optical density (OD) at 405 nm, EIA reactivity of human serum sample 9 ([1]; serum sample 9, positive for TTV DNA by PCR, serum 1:100, peptide coated 10 μg/ml, OD over 0.500 positive): 0.08 OD; optical density (OD) at 405 nm, EIA reactivity of human serum sample 11 ([1]; serum sample 11, negative for TTV DNA by PCR, serum 1:100, peptide coated 10 μg/ml, OD over 0.500 positive): 0.12 OD; optical density (OD) at 405 nm, EIA reactivity of human serum sample 18 ([1]; serum sample 18, positive for TTV DNA by PCR, serum 1:100, peptide coated 10 μg/ml, OD over 0.500 positive): 0.08 OD; optical density (OD) at 405 nm, EIA reactivity of human serum sample 36 ([1]; serum sample 36, positive for TTV DNA by PCR, serum 1:100, peptide coated 10 μg/ml, OD over 0.500 positive): 0.09 OD; optical density (OD) at 405 nm, EIA reactivity of human serum sample 48 ([1]; serum sample 48, positive for TTV DNA by PCR, serum 1:100, peptide coated 10 μg/ml, OD over 0.500 positive): 0.08 OD; optical density (OD) at 405 nm, EIA reactivity of human serum sample 98 ([1]; serum sample 98, positive for TTV DNA by PCR, serum 1:100, peptide coated 10 μg/ml, OD over 0.500 positive): 0.08 OD; optical density (OD) at 405 nm, EIA reactivity of human serum sample 110 ([1]; serum sample 110, positive for TTV DNA by PCR, serum 1:100, peptide coated 10 μg/ml, OD over 0.500 positive): 0.08 OD; optical density (OD) at 405 nm, EIA reactivity of human serum sample 155 ([1]; serum sample 155, positive for TTV DNA by PCR, serum 1:100, peptide coated 10 μg/ml, OD over 0.500 positive): 0.14 OD; optical density (OD) at 405 nm, EIA reactivity of human serum sample 157 ([1]; serum sample 157, positive for TTV DNA by PCR, serum 1:100, peptide coated 10 μg/ml, OD over 0.500 positive): 0.14 OD
DQNIHMNARLLIRSPFT (Peptide Immunogen) [compound 50, overlapping synthetic peptide of TTV ORF1] | 0.07 | 0.09 | 0.08 | 0.09 | 0.08 | 0.86 | 0.29 | 0.08 | 0.18 | 0.07 | 0.07 | 0.07 | 0.10 | 0.20 | 0.63 | 0.46 | 0.836 | 1.769 | 0.850 | Reactive | –
YTDIKYNPFTDRGEGNM (Peptide Immunogen) [compound 44, overlapping synthetic peptide of TTV ORF1] | 0.09 | 0.11 | 0.11 | 0.12 | 0.98 | 0.15 | 0.10 | 0.09 | 0.14 | 0.09 | 0.08 | 0.08 | 0.12 | 0.13 | 0.17 | 1.25 | 0.855 | 1.829 | 0.806 | Reactive | –
